{"source": "patent US20250057963A1", "about": "“DISCOVERY OF PIPERLONGUMINE AS A NOVEL E3 LIGASE LIGAND” (University of Florida Research Foundation, Incorporated, priority 2021, published 2025)", "biological_target": "T1, purified KEAP1 protein (Homo sapiens, UniProt Q14145)", "T1 construct": "made in house; host or cells: bacterial cells grown in LB and induced with IPTG", "T1 sequence (Q14145 whole entry)": "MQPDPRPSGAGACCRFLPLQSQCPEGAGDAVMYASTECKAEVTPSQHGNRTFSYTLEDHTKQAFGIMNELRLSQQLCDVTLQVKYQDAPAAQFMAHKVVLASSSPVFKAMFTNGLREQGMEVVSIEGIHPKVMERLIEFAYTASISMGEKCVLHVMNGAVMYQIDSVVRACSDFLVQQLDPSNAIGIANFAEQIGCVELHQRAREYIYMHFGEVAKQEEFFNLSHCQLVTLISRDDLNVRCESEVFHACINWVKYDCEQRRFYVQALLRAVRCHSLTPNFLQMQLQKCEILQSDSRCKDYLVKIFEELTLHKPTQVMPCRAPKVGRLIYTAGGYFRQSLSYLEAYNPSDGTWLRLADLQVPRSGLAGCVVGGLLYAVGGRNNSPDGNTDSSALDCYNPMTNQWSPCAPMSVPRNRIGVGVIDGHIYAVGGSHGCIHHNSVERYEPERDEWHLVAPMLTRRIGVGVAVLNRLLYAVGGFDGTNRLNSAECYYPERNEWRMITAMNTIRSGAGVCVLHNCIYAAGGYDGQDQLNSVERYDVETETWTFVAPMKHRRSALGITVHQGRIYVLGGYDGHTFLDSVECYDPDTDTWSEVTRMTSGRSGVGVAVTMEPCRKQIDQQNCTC", "test": "Gel-based competitive ABPP assay with IA-alkyne", "assay_type": "binding", "conditions": "purified His-KEAP1, serially diluted 955", "protocol": "The plasmid pet28a-His6-Keap1 for expressing His-KEAP1 was purchased from Addgene (a gift from Yimon Aye, plasmid #62454). To purify His-KEAP1, the plasmid transformed cells were grown in LB broth at 37° C. with shaking until the optical density at 600 nm reached 0.6-0.7. Isopropyl-β-D-thiogalactopyranoside (1 mM) was added to induce protein expression overnight at 16° C. Cell pellet was resuspended in lysis buffer [50 mM Tris-Hcl (pH 7.5), 150 mM NaCl, 1 mM EDTA, 0.05% NP-40, […], lx protease inhibitor, and 1 mM DTT] and lysed using sonication. The lysate was cleared by centrifugation at 20,000×g for 30 min at 4° C. and purified by using GE Healthcare His GraviTrap™ Kit (Cat. No. 45-002-016, Fisher Scientific). After elution, the proteins were concentrated by using Pierce Protein Concentrators PES, 30K MWCO (Cat. No. 88502, ThermoFisher) and then dialyzed into the buffer containing 50 mM HEPES, 150 mM NaCl, and 0.1 mM EDTA (pH 7.5).\nA gel-based ABPP assay was performed as previously described with some modifications (Ward et al., 2019). Briefly, Purified His-KEAP1 ([…]) was diluted into 50 μL of PBS and 0.5 μL of either DMSO (vehicle) or indicated compound was added to incubate at 25° C. for 1 h, then the samples were treated with 20 µM IA-Alkyne (Cat. No. 7015, Tocris, prepared in DMSO) at 25° C. for 1 h. […]"}
{"smiles": "COc1cc(/C=C/C(=O)N2CCC=CC2=O)cc(OC)c1OCCN1CCN(C(=O)CN2CCC(C(=O)Nc3ncc(SCc4ncc(C(C)(C)C)o4)s3)CC2)CC1", "note": "[compound 955, (E)-N-(5-(((5-(tert-butyl)oxazol-2-yl)methyl)thio)thiazol-2-yl)-1-(2-(4-(2-(2,6-dimethoxy-4-(3-oxo-3-(6-oxo-3,6-dihydropyridin-1(2H)-yl)prop-1-en-1-yl)phenoxy)ethyl)piperazin-1-yl)-2-oxoethyl)piperidine-4-carboxamide]", "values": [{"measurement": "competition with IA-alkyne for covalent binding to KEAP1", "result": "concentration-dependent manner"}]}
